Laboratory results from the supplement of paper PMC10307832.

Tests used:
Experiment in all cases: relative viability (nuclei count vs DMSO), 5 days (fraction); higher = more cells survive
Irinotecan + Luminespib = compound: CCc1c2c(nc3ccc(OC(=O)N4CCC(N5CCCCC5)CC4)cc13)-c1cc3c(c(=O)n1C2)COC(=O)[C@]3(O)CC [Irinotecan] + CCNC(=O)c1noc(-c2cc(C(C)C)c(O)cc2O)c1-c1ccc(CN2CCOCC2)cc1 [Luminespib] (partner 0.01 µM)
Summary of the method: (§1)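 Lung cancer cell lines in 1536-well plates got either a single drug or a fixed anchor-drug dose together with five library-drug doses (not always all listed) in √10 steps, by pin tool, on the day after seeding. Nuclei were counted after 5 days, and relative viability is the treated-to-vehicle ratio of nuclei counts. Values are medians of duplicate plates.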

Irinotecan + Decitabine = compound: CCc1c2c(nc3ccc(OC(=O)N4CCC(N5CCCCC5)CC4)cc13)-c1cc3c(c(=O)n1C2)COC(=O)[C@]3(O)CC [Irinotecan] + Nc1ncn([C@H]2C[C@H](O)[C@@H](CO)O2)c(=O)n1 [Decitabine] (partner 2 µM)
Summary of the method: as §1

MK-8033 + Pictilisib = compound: Cn1cc(-c2cnc3ccc4ccc(CS(=O)(=O)NCc5ccccn5)cc4c(=O)c3c2)cn1 [MK-8033] + CS(=O)(=O)N1CCN(Cc2cc3nc(-c4cccc5[nH]ncc45)nc(N4CCOCC4)c3s2)CC1 [Pictilisib] (partner 1 µM)
Summary of the method: as §1

MK-8033 + Vorinostat = compound: Cn1cc(-c2cnc3ccc4ccc(CS(=O)(=O)NCc5ccccn5)cc4c(=O)c3c2)cn1 [MK-8033] + O=C(CCCCCCC(=O)Nc1ccccc1)NO [Vorinostat] (partner 1 µM)
Summary of the method: as §1

## UMC-11
Irinotecan + Luminespib; first compound 0.6325 µM
  relative viability: 0.569
Irinotecan + Luminespib; first compound 2 µM
  relative viability: 0.491
Irinotecan + Luminespib; first compound 6.325 µM
  relative viability: 0.383
Irinotecan + Luminespib; first compound 20 µM
  relative viability: 0.192
Irinotecan + Decitabine; first compound 0.6325 µM
  relative viability: 0.589
Irinotecan + Decitabine; first compound 2 µM
  relative viability: 0.461
Irinotecan + Decitabine; first compound 6.325 µM
  relative viability: 0.347
Irinotecan + Decitabine; first compound 20 µM
  relative viability: 0.2
MK-8033 + Pictilisib; first compound 0.02 µM
  relative viability: 0.746
MK-8033 + Pictilisib; first compound 0.06325 µM
  relative viability: 0.511
MK-8033 + Pictilisib; first compound 0.2 µM
  relative viability: 0.804
MK-8033 + Pictilisib; first compound 0.6325 µM
  relative viability: 0.932
MK-8033 + Pictilisib; first compound 2 µM
  relative viability: 0.699
MK-8033 + Vorinostat; first compound 0.02 µM
  relative viability: 0.32
MK-8033 + Vorinostat; first compound 0.06325 µM
  relative viability: 0.345
MK-8033 + Vorinostat; first compound 0.2 µM
  relative viability: 0.46
MK-8033 + Vorinostat; first compound 0.6325 µM
  relative viability: 0.419
MK-8033 + Vorinostat; first compound 2 µM
  relative viability: 0.409
